Reference: patent publication US20120128807A1, “COMPOSITION FOR PREVENTING OR TREATING IRRITABLE BOWEL SYNDROME” (SK CHEMICALS CO., LTD., priority 2009, published 2012)

Key:
[1] = biological target: T1, neurokinin receptor (U-373MG glioma cell line) (Homo sapiens, UniProt P25103); test: Neurokinin receptor inhibition: binding of fluorescent substance P to U-373MG cells; conditions: 50 nM sample, 50nM SP
T1 construct: Cell line (U-373MG glioma cell line) over-expressing neurokinin receptor; host or cells: U-373MG glioma cell line
T1 sequence (P25103 whole entry): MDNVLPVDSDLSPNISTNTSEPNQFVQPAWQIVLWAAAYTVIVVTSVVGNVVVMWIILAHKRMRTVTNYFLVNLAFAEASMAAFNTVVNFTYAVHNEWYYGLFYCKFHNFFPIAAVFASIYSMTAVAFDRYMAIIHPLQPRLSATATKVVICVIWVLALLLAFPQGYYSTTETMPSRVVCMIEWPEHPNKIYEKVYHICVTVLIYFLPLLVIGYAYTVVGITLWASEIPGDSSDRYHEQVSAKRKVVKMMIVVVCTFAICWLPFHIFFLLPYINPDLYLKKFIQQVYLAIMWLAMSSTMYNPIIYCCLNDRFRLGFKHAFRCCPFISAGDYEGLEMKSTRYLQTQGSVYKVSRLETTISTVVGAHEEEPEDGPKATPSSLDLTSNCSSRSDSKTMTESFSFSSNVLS
Description: Cell line (U-373MG glioma cell line) over-expressing neurokinin receptor was purchased from Korean Cell Line Bank. The cell line was incubated with 5% CO2 in a medium (90% of RPMI 1640, 10% of fetal bovine serum, 100 IU/ml of penicillin, 100 μg/ml of streptomycin, 2 mM of L-glutamine, and 1.0 mM of sodium pyruvate), and was sub-cultured every 6-8 days with 0.25% trypsin solution.
Cells were diluted to have various cell numbers, and were seeded onto a 24-well plate. After 48 hours, substance P (SP) connected with a probe was added in various concentrations. After some time for reaction, the concentration of fluorescence probe-containing SP (Oregon Green488 conjugate, Molecular Probes, Eugene, Oreg.) bound to the receptor was measured with a fluorophotometer according to the number of cells and the concentrations, through which the ideal condition was established [V J. Bennett et al., BMC Chem. Biol., 1:1, 2001]. Non-peptide antagonist, L-733060 (estimated affinity=0.8nM), which selectively binds to the receptor was used as a control [R. Bang et al., J. Pharmacol. Exp. Ther., 305, p 31-39, 2003].
50% Ethanol aqueous solution extract of Atractylodes japonica was solved in DMSO (the final concentration is within 0.1%) and diluted with distilled water. […] Then, cells were dissolved in 5% Triton X-100, and their fluorescence (Ex 485/Em 528) was measured with black, opaque 96-well plate. […]

neurokinin receptor = neurokinin receptor (Homo sapiens, UniProt P25103); conditions: non-peptide antagonist which selectively binds to the receptor; cited from earlier work
Sequence of neurokinin receptor (P25103 whole entry): as above

Relative Inhibitory Activity (%) [1]: 72 ± 8 %
SMILES: FC(F)(F)c1cc(CO[C@H]2CCCN[C@H]2c2ccccc2)cc(C(F)(F)F)c1 [Extract L-733060, L-733060]
estimated affinity (neurokinin receptor): 0.8 nM
